# Measurements as given in patent publication US9421197B2, “Methods of generating hyper INOS expressing cells and uses thereof” (CASE WESTERN RESERVE UNIVERSITY, priority 2010, dated 2016).
# Experiments:
# excisional wounds = test: inflammatory wound model: wound healing curves; type: in vivo, mice; conditions: for day by which wounds healed: IL6−/− mice, inflammatory wound treatment, agent given i.p.
# peritoneal macrophages = test: thioglycollate-induced peritonitis, peritoneal macrophages analyzed ex vivo by RT-PCR; conditions: IL6−/− mice treated in vivo
# Procedure: For RT-PCR analysis, RNA was isolated using Trizol (Invitrogen) following the manufacturer's instructions, and was reverse-transcribed and quantified using Applied Biosystems TaqMan® RNA-to-CT™ 1-Step Kit, TaqMan® Gene Expression Assays for 18 s RNA, iNOS II, […], and IL-1β, and Step-One™ System. Cycle time, temperature, and number were based on Applied Biosystems recommendations.
# Mice were injected i.p. with 2 ml of thioglycollate and sacrificed 24 hours later mice by cervical dislocation. Lavage was performed by infusing 5 ml of […] DPBS into the peritoneal cavity. The fluid sample is recovered by aspirating the liquid with a syringe. 80%±21% of instilled fluid volume is recovered. Macrophages were harvested following centrifugation of the […].
# [1] = therapeutic doses; FDA alert May 21, 2007; cited from earlier work
# iNOS and TNF-α mRNA = test: inflammatory wound model: iNOS and TNF-α expression in skin; type: in vivo; conditions: IL6−/− mice, combined wounding, UVB and topical rosiglitazone, 24 hours
# Procedure: Cycle time, temperature, and number were based on Applied Biosystems recommendations. Skin was wounded with some modifications. Mice were treated with 3-6 mm excisional wounds, one midline and two on each side of the midline. […] Wounds were measured and treated with topical rosiglitazone solution daily until healed (loss of serum crust and reepithelialization). Lung Treatment and Preparation […] All other reagents were purchased from sigma.
# NF-κB p65 and STAT3 = test: Western blot of nuclear NF-κB p65 and STAT3 in thioglycollate-elicited macrophages; type: cell-based, mice; conditions: reconstitution of IL6−/− macrophages
# Procedure: Mice were injected i.p. with 2 ml of thioglycollate and sacrificed 24 hours later mice by cervical dislocation. Lavage was performed by infusing 5 ml of 40 C DPBS into the peritoneal cavity. The fluid sample is recovered by aspirating the liquid with a syringe. 80%±21% of instilled fluid volume is recovered. Macrophages were harvested following centrifugation of the BAL fluid.
# NE-PER kit (Thermo Scientific) was used to extract nuclear and cytoplasmic protein from peritoneal macrophages. Protein samples were prepared under reduced conditions and western blot analysis was performed using a standard protocol (Invitrogen). Stat3 (79D7) Rabbit mAb, NF— xB p65, β-actin (13E5) Rabbit mAb (Cell Signaling Technology, Danvers, Mass.) were used for western blot evaluation. Densiometry analyzed by Biorad VersaDoc imaging system.
molecule,measurement,setting,value
CC(=N)NCc1cccc(CN)c1 [1400 W],day by which wounds healed,excisional wounds,14 days
O=C(Nc1ccccc1)c1cc([N+](=O)[O-])ccc1Cl [GW9662],iNOS expression,peritoneal macrophages,No significant increase
CN(CCOc1ccc(CC2SC(=O)NC2=O)cc1)c1ccccn1 (centres unmarked) [rosiglitazone],risk of heart attack,[1],substantially increased risk
same,delay of wound closure,"excisional wounds; IL6−/− mice compared to wildtype, inflammatory wound protocol",8 days
same,increase in TNF-α mRNA expression,iNOS and TNF-α mRNA,13 fold
same,increase in iNOS mRNA expression,iNOS and TNF-α mRNA,20 fold
rIL-6: recombinant IL-6 (R&D Systems),day by which wounds healed,excisional wounds,11 days
same,STAT3 and NF-kB levels,NF-κB p65 and STAT3,restores STAT3 and NF-kB levels similar to wildtype conditions
